{
  "source": "patent US12404243B2",
  "about": "“Inhibitors of the Wnt/beta-catenin pathway” (The Regents of the University of California, priority 2018, dated 2025)",
  "key": {"[1]": {"test_system": "Wnt/β-catenin-mediated transcription", "assay": "TCF-luciferase activity assay in 293T/Top/β-cat* cells", "type": "cell-based", "conditions": "summary of FIGS. 5A, B (293T/Top cells + LiCl) and 6A-C (293T/Top/β-cat* cells)", "protocol": "293T cells were maintained in DMEM medium containing 10% FBS and antibiotics (penicillin and streptomycin) at 37° C. in 5% CO2. Cells were stably infected with lentiviruses expressing the TopFlash reporter (293T/Top cells). The β-catenin mutant (β-cat*, the constitutively active mutant) construct was prepared using the retroviral expression vector by standard PCR. For viral transduction, retrovirus was obtained by co-trasfection of pQCXIP-β-cat* with packaging plasmids into 293T cells following the manufacturer's instructions. 293T/Top stable cells were seeded in 10 cm dish and incubated overnight. The next day cells were treated with retroviral particles. After 12 hours, the medium was replaced with fresh medium. 2 days post virus infection, the cells were selected with puromycin for 5 days to generate the 293T/Top/β-cat* stable cell line.\n293 T/Top/β-cat* cells were plated at 40%-50% confluences in 12-well plate for 8 hours and then treated with Wnt inhibitors overnight. The luciferase activity of total cell lysates was measured using Luciferase Assay System (Promega). The related TCF-luciferase activity was normalized against the protein concentration of each cell lysate sample."}, "SW480 tumor xenografts": {"test_system": "SW480 tumor xenografts", "assay": "Mouse xenografts of SW480 cells", "type": "in vivo, nude mice", "protocol": "5×10^5 of SW480 cells were injected subcutaneously into the flank area of 6-8-week-old nude mice. Tumor volume was measured by using an electronic caliper and calculated with the formula length×width^2×0.5, every 2 days. 12 days after inoculation, tumor bearing mice were administered Wnt inhibitors (dissolved in 10% DMSO+20% Cremophor EL+70% normal saline) via intraperitoneal injection for 5 days per week for 10 days at 10 mg/kg. Animal body weights were measured before drug treatments and at the end of the experiments. At the end of the experiments, animals were euthanized with carbon dioxide, followed by cervical dislocation. The tumors were dissected and weighed on the digital balance. We housed mice in pathogen-free facilities under 12-h light and 12-h dark cycle. The animal protocol and experimental procedures were approved by the Division of Laboratory Animal Medicine of UCLA and were in accordance with the US National Institute of Health guidelines."}, "[2]": {"conditions": "SW480 xenografts, 10 mg/kg, day 12 to 22 (FIG. 16A)"}},
  "data": [
    {"smiles": "CN(C)CCC(=O)N1C/C(=C\\c2cccc(C(F)(F)F)c2)C(=O)/C(=C/c2cccc(C(F)(F)F)c2)C1", "note": "[JC018, 1-(3-(Dimethylamino)propanoyl)-3,5-bis((E)-3-(trifluoromethyl)benzylidene)piperidin-4-one]", "values": [
      {"measurement": "Wnt/β-catenin-mediated transcription", "setting": "[1]", "result": "significantly inhibited"}
    ]},
    {"smiles": "CN(C)CCC(=O)N1C/C(=C\\c2ccccn2)C(=O)/C(=C/c2ccccn2)C1", "note": "[JC021, (3E,5E)-1-(3-(Dimethylamino)propanoyl)-3,5-bis(pyridin-2-ylmethylene)piperidin-4-one]", "values": [
      {"measurement": "Wnt/β-catenin-mediated transcription", "setting": "[1]", "result": "significantly inhibited"}
    ]},
    {"smiles": "CN(C)CCC(=O)N1C/C(=C\\c2ccc(C(F)(F)F)cc2)C(=O)/C(=C/c2ccc(C(F)(F)F)cc2)C1", "note": "[JC022, 1-(3-(Dimethylamino)propanoyl)-3,5-bis((E)-4-(trifluoromethyl)benzylidene)piperidin-4-one]", "values": [
      {"measurement": "Wnt/β-catenin-mediated transcription", "setting": "[1]", "result": "significantly inhibited"}
    ]},
    {"smiles": "CN(C)CCC(=O)N1C/C(=C\\c2cc(Cl)cc(Cl)c2)C(=O)/C(=C/c2cc(Cl)cc(Cl)c2)C1", "note": "[JC028, 3,5-Bis((E)-3,5-dichlorobenzylidene)-1-(3-(dimethylamino)propanoyl)piperidin-4-one]", "values": [
      {"measurement": "Wnt/β-catenin-mediated transcription", "setting": "[1]", "result": "significantly inhibited"}
    ]},
    {"smiles": "CN(C)CCC(=O)N1C/C(=C\\c2ccc(Cl)c(Cl)c2)C(=O)/C(=C/c2ccc(Cl)c(Cl)c2)C1", "note": "[JC032, 3,5-Bis((E)-3,4-dichlorobenzylidene)-1-(3-(dimethylamino)propanoyl)piperidin-4-one]", "values": [
      {"measurement": "Wnt/β-catenin-mediated transcription", "setting": "[1]", "result": "significantly inhibited"}
    ]},
    {"smiles": "O=C1/C(=C/c2ccc(F)c(F)c2)CN(C(=O)CCN2CCCCC2)C/C1=C\\c1ccc(F)c(F)c1", "note": "[JC048, 3,5-Bis((E)-3,4-difluorobenzylidene)-1-(3-(piperidin-1-yl)propanoyl)piperidin-4-one]", "values": [
      {"measurement": "Wnt/β-catenin-mediated transcription", "setting": "[1]", "result": "significantly inhibited"}
    ]},
    {"smiles": "O=C1/C(=C/c2ccc(F)c(F)c2)CN(C(=O)CCC(=O)N2CCCC2)C/C1=C\\c1ccc(F)c(F)c1", "note": "[JC072, 1-(3,5-Bis((E)-3,4-difluorobenzylidene)-4-oxopiperidin-1-yl)-4-(pyrrolidin-1-yl)butane-1,4-dione]", "values": [
      {"measurement": "Wnt/β-catenin-mediated transcription", "setting": "[1]", "result": "significantly inhibited"}
    ]},
    {"smiles": "O=C1/C(=C/c2ccc(F)c(F)c2)CN(C(=O)c2ccc(OCCN3CCCCC3)cc2)C/C1=C\\c1ccc(F)c(F)c1", "note": "[JC082, 3,5-Bis((E)-3,4-difluorobenzylidene)-1-(4-(2-(piperidin-1-yl)ethoxy)benzoyl)piperidin-4-one]", "values": [
      {"measurement": "tumor volume", "setting": "SW480 tumor xenografts; SW480 xenografts, 10 mg/kg, day 12 to day 21 (FIG. 9A)", "result": "significantly reduce tumor volume"},
      {"measurement": "tumor sizes at the end of treatment", "setting": "SW480 tumor xenografts; SW480 xenografts, 10 mg/kg, day 12 to day 21 (FIG. 9B)", "result": "significantly reduced the size of the tumors recovered"},
      {"measurement": "tumor weights at the end of treatment", "setting": "SW480 tumor xenografts; SW480 xenografts, 10 mg/kg, day 12 to day 21 (FIG. 9C)", "result": "significantly reduce the weight of tumors recovered"},
      {"measurement": "tumor growth", "setting": "SW480 tumor xenografts; mouse xenograft studies of human colon cancer, summary of FIGS. 7A-D, 8A-C, 9A-C", "result": "significantly inhibited the tumor growth"}
    ]},
    {"smiles": "CCN(CC)CCS(=O)(=O)N1C/C(=C\\c2ccc(F)c(F)c2)C(=O)/C(=C/c2ccc(F)c(F)c2)C1", "note": "[JC098, 1-((2-(Diethylamino)ethyl)sulfonyl)-3,5-bis((E)-3,4-difluorobenzylidene)piperidin-4-one]", "values": [
      {"measurement": "actual tumor sizes at the end of treatment", "setting": "SW480 tumor xenografts; SW480 xenografts, 10 mg/kg, day 12 to day 20 (FIG. 8B)", "result": "reduced the size of tumors recovered"}
    ]},
    {"smiles": "CN(C)CCNC(=O)C1C/C(=C\\c2cc(Cl)cc(Cl)c2)C(=O)/C(=C/c2cc(Cl)cc(Cl)c2)C1", "note": "(stereo not shown) [JC137, 3,5-Bis((E)-3,5-dichlorobenzylidene)-N-(2-(dimethylamino)ethyl)-4-oxocyclohexane-1-carboxamide]", "values": [
      {"measurement": "actual tumor sizes at the end of treatment", "setting": "SW480 tumor xenografts; [2]", "result": "reduced the size of tumors recovered"}
    ]},
    {"smiles": "CN(C)CCOc1ccc(NC(=O)C2C/C(=C\\c3cc(Cl)cc(Cl)c3)C(=O)/C(=C/c3cc(Cl)cc(Cl)c3)C2)cc1", "note": "(stereo not shown) [JC138, 3,5-Bis((E)-3,5-dichlorobenzylidene)-N-(4-(2-(dimethylamino)ethoxy)phenyl)-4-oxocyclohexane-1-carboxamide]", "values": [
      {"measurement": "actual tumor sizes at the end of treatment", "setting": "SW480 tumor xenografts; [2]", "result": "reduced the size of tumors recovered"},
      {"measurement": "tumor weights at the end of treatment", "setting": "SW480 tumor xenografts; SW480 xenografts, 10 mg/kg, day 12 to 22 (FIG. 16B)", "result": "significantly reduced the weight of tumors recovered"},
      {"measurement": "tumor volumes", "setting": "SW480 tumor xenografts; SW480 xenografts, 10 mg/kg, day 12 to 22 (FIG. 16C)", "result": "significantly reduced tumor volumes"}
    ]}
  ]
}
